Laboratory results taken from publication PMC3332081, “Cysteamine Suppresses Invasion, Metastasis and Prolongs Survival by Inhibiting Matrix Metalloproteinases in a Mouse Model of Human Pancreatic Cancer” (PLoS ONE, 2012).

Legend:
[1] = cited from earlier work
MMPs = test: fluorimetric MMP inhibitor profiling, span over all MMPs; format: biochemical; settings: MMP-1, -2, -3, -7, -8, -9, -10, -12, -13, -14; read-out: IC50 against each MMP enzymatic activity (span over the MMPs)
Description: (§1) After administration of fluorogenic substrate, a velocity of fluorescent increase was measured using excitation/emission = 320/405 nm.

[2] = system: pancreatic cancer cell lines; test: matrigel invasion assay; format: cell-based, human
Description: Cell invasion was assayed in BD BioCoat Matrigel invasion chambers (BD Biosciences; 24 wells, 8 µm pore size) as described previously. Briefly, cells were incubated with different concentrations of cysteamine (0–5 mM) for 24 hours. Non-invaded cells were removed from the upper surface of the membrane with a cotton swab, and cells on the lower surface of the membrane were fixed and stained with H&E. Three random fields per chamber were counted. Data were shown as mean ± S.D. of triplicate determinations.

[3] = system: pancreatic cancer cell lines; test: cell migration (wound healing) assay; format: cell-based, human
Description: Cell migration assay is a classical wound healing assay. For this assay, cells were cultured in 10 cm petri dishes until they were completely confluent. Cell monolayers were scraped with a sterile yellow micropipette tip and washed with PBS three times; the cells were then cultured in medium containing 0–5 mM of cysteamine for 24 hours. Five random fields were selected and pictures were taken using an inverted microscope. The average area (mm^2) of the gap between the cell layers was calculated using IPLab imaging software (BD Biosciences-Bioimaging, Rockville, MD).

HS766T [4] = test: cell viability assay (trypan blue count), HS766T; format: cell-based, human; settings: 24 and 48 hour treatment, viable cell count
Description: (§2) Cell viability of pancreatic cancer cell lines was measured by counting viable cell numbers. Briefly, 3×10^5 cells were seeded per well in a 6-well plate with 2.0 milliliter complete medium and incubated overnight for plating. The cells were treated with different concentrations of cysteamine for 24–48 hours. After incubation, cells were detached with trypsin, washed and stained with 0.4% trypan blue. Cell number was manually counted using a hemocytometer and presented as number of viable cells per milliliter.

MIA-PaCa2 [5] = test: cell viability assay (trypan blue count), MIA-PaCa2; format: cell-based, human
Description: as §2

[6] = system: total MMPs activity in pancreatic cancer cell lines; test: total MMPs activity in lysates of treated cells (fluorogenic substrate); format: cell-based, human; settings: two representative pancreatic cancer cell lines, 0–5 mM, 24 hours
Description: (§3) MMPs activity was measured by Mca-KPLGL-Dpa-AR-NH2 Fluorogenic Peptide Substrate (R&D systems, Emeryville, CA). Total cell protein from each pancreatic cancer cell line was collected using lysis buffer (containing 50 mM Tris-HCl, 10 mM CaCl2, 0.05% Brij35 and 0.25% Triton-X) without an MMP inhibitor. Substrate and 10 µg of total cell protein in the buffer were mixed in a black-wall 96-well plate. After 1 hour incubation, fluorescence units were determined using excitation/emission = 320/405 nm.

MMP-9 [7] = test: MMP-9 protein level in treated cells (ELISA); format: cell-based, human; settings: 5 mM (highest concentration), 24 hours, both cell lines
Description: (§4) The MMP-9 protein level was determined using Human total MMP-9 DuoSet kit (R&D systems, Emeryville, CA) following the manufacturer's instruction. Ten microgram of total protein was aliquoted in each well and the MMP-9 concentration was determined by the colorimetric method.

MMP-9 [8] = test: MMP-9 mRNA in treated cells (qRT-PCR); format: cell-based, human; settings: 5 mM (highest concentration), 24 hours, both cell lines
Description: (§5) Quantitative reverse transcription-PCR (qRT-PCR) was performed as described previously using QuantiTect SYBR Green PCR Kits (QIAGEN, Valencia, CA). Gene specific primers for human MMP-9, MMP-12, MMP-14 and β-actin were either purchased from QIAGEN or synthesized at the CBER core facility. Gene expression was normalized to β-actin before the fold change in gene expression was determined.

MMP-12 [9] = test: MMP-12 mRNA in treated cells (qRT-PCR); format: cell-based, human; settings: 24 hours, highest concentration
Description: as §5

MMP-14 = MMP-14 mRNA in treated cells (qRT-PCR); format: cell-based, human; settings: 24 hours, highest concentration
Description: as §5

MMP-9 [10] = test: gelatin gel zymography of treated cells; format: cell-based, human; settings: cell lysates after 24 hours
Description: (§6) Gelatin gel zymography was performed on cell lysates from HS7666 and MIA-PaCa2 pancreatic cancer cell line with or without culture with different concentration of cysteamine essentially as described by D'Angelo et al. Briefly, 50 µg of total protein was electrophoresed on 10% SDS-PAGE containing 0.1% gelatin as substrate. After washing with 1% Triton X-100 in 50 mM Tris/HCl, pH 7.5 for 1 hr to remove SDS, the gels were incubated overnight at 37 °C in 50 mM Tris/HCl, pH 7.5, containing 150 mM NaCl, 10 mM CaCl2 and 0.1% Triton X-100, prior to staining with simply blue safe stain. The gels were washed with deionized water at room temperature. […] Relevant band intensities were quantified by scanning densitometric analysis and normalized to cell number.

HS766T [11] = test: orthotopic pancreatic cancer model, HS766T; format: in vivo, nude nu/nu mice
Description: (§7) Female nude nu/nu mice between ages 5 and 6 weeks were maintained in a barrier facility in HEPA-filtered rack. All animal studies were conducted under approved protocol #2000–06 by the CBER Institutional Animal Care and Use Committee in accordance with the principles and procedures outlined in the NIH Guideline for the Care and Use of Laboratory Animals. For orthotopic tumor cell injection, the pancreas was carefully exposed, and 2.0×10^6 of MIA-PaCa2 and HS766T cells were injected into the organ. The pancreas was then returned to the peritoneal cavity, and the abdominal wall and skin were closed with skin clips,[30]. From day 4 after tumor implantation, increasing doses of cysteamine (0, 25, 100, or 250 mg/kg/day) were subcutaneously injected twice a day until the end of the experiment. At day 30, mice were sacrificed and the number of metastatic nodules visible by naked eye and whose sizes were >5 mm in diameter counted. The total weight of primary tumor and metastatic nodules were also measured. Pictures were taken immediately after sacrificing the animals. Additionally, mouse survival time was monitored in an independent experiment. Mice were sacrificed when they had severe ascites or cachexia. Mice in both tumor models were weighed at day 10 and day 25 after Cysteamine treatment.

MIA-PaCa2 [12] = test: orthotopic pancreatic cancer model, MIA-PaCa2; format: in vivo, nude nu/nu mice
Description: as §7

[13] = safety in tumor-bearing mice (body weight, serum enzymes, histology); format: in vivo, nude nu/nu mice
Description: as §7
Mouse blood was collected from the tail vein. Serum levels of alanine aminotransferase (ALT), creatine kinase (CK), aldolase and creatinine (Cr) were measured using different kits obtained from Pointe Scientific, Inc. (Canton, MI) and Caldon Biotech, Inc. (Vista, Ca), following the manufacturer's instruction.

[14] = system: MMPs activity in primary orthotopic tumors (HS766T and MIA-PaCa2); test: MMP activity in primary orthotopic tumors (fluorogenic substrate); format: in vivo, nude nu/nu mice; settings: 100 and 250 mg/Kg, day 30
Description: as §3
(§8) When mice were sacrificed at day 30, primary tumors were collected. For extraction of total protein, the tumor was soaked with lysis buffer and homogenized using TissueRuptor (QIAGEN); the supernatant was collected. Total RNA was extracted using FastRNA pro green kit (MP Biomedicals, Solon, OH) following the manufacturer's instructions. MMP activity, gelatin hydrolyzing MMP activity and the mRNA and protein levels of MMP-9 were determined as mentioned above.

MMP-9 [15] = test: MMP-9 mRNA in primary tumors (qRT-PCR); format: in vivo, nude nu/nu mice; settings: tumors harvested at day 30
Description: as §5, §8

MMP-9 [16] = test: MMP-9 protein in primary tumors (ELISA); format: in vivo, nude nu/nu mice; settings: tumors harvested at day 30
Description: as §4, §8

MMP-9 [17] = test: zymography of primary tumors; format: in vivo, nude nu/nu mice; settings: tumors harvested at day 30
Description: as §6, §8

[18] = oral, every 6 hours at 60 to 90 mg/kg of body weight per day; cited from earlier work
MMP-12 [19] = biological target: T1, MMP-12 (Homo sapiens, UniProt P39900); test: fluorimetric MMP inhibitor profiling, MMP-12; format: biochemical; settings: 30 minutes preincubation, fluorogenic substrate
T1 construct: purchased Enzo Life Science, Farmingdale, NY
Description: as §1

[20] = set-up: method as in PMID 11060801; settings: cited from earlier work

T1 sequence (P39900 106-470): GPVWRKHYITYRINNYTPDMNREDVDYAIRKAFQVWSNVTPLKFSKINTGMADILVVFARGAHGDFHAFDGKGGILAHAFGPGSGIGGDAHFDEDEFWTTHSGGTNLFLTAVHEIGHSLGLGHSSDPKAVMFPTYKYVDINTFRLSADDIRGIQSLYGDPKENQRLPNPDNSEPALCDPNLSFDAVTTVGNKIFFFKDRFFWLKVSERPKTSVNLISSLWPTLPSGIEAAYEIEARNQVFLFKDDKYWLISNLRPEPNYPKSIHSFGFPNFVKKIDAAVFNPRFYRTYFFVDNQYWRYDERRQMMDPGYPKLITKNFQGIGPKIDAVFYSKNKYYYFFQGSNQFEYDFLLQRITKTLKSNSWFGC

CNC(=O)[C@@H](NC(=O)[C@H](CC(C)C)[C@H](O)C(=O)NO)C(C)(C)C [marimastat]
clinical toxicity ([1]; higher dosage, patients with breast cancer metastasis): high musculoskeletal toxicities

NCCS [Cysteamine]
IC50 (MMPs): 38 to 460 µM | lowest concentration that significantly inhibited cell invasion ([2]; all 10 pancreatic cancer cell lines, 24 hours): 0.05 mM | concentration that sufficiently inhibited cancer cell invasion in vitro ([2]; in vitro): 50 µM | concentration at which cell migration was significantly inhibited ([3]; all 10 cell lines, 24 hours): ≥ 0.05 mM | concentration that sufficiently inhibited cancer cell migration in vitro ([3]; in vitro): 50 µM | concentration showing cell toxicity (HS766T [4]): > 12.5 mM | concentration showing cell toxicity (MIA-PaCa2 [5]; MIA-PaCa2, 24 and 48 hour treatment, viable cell count): > 12.5 mM | concentrations that caused no toxicity to cells (abstract) (MIA-PaCa2 [5]; cells not named in the abstract, viability tested in MIA-PaCa2): < 25 mM | total MMP activity in treated cells [6]: inhibited MMP activity | MMP-9 protein level (MMP-9 [7]): modestly increased | MMP-9 mRNA level (MMP-9 [8]): modestly increased | MMP-12 mRNA (MMP-12 [9]): modest increase | MMP-14 mRNA (MMP-14): modest increase | zymographic gelatin hydrolyzing activity, pro and active MMP-9 (MMP-9 [10]): decreased significantly in a dose dependent manner | HS766T metastasis number, average (HS766T [11]; 250mg/kg s.c., day 30, lesions ≥ 5 mm, average of 5 mice): 3.6 | decrease of the number of metastases of HS766T tumor (HS766T [11]; 250 mg/kg/day s.c., day 30, versus control): ~90% | development of ascites (HS766T [11]; HS766T model, 100 and 250 mg/kg/day): no mice developed ascites | dose at which mouse survival time was significantly prolonged (HS766T [11]; HS766T model, Kaplan-Meier, s.c. twice a day from day 4): ≥ 100 mg/kg/day | size and weight of the primary tumors, control versus treated groups (HS766T [11]; HS766T model, day 30): did not show any difference | development of ascites (MIA-PaCa2 [12]; MIA-PaCa2 model, 100 and 250 mg/kg/day): no mice developed ascites | dose at which mouse survival time was significantly prolonged (MIA-PaCa2 [12]; MIA-PaCa2 model, Kaplan-Meier, s.c. twice a day from day 4): ≥ 100 mg/kg/day | size and weight of the primary tumors, control versus treated groups (MIA-PaCa2 [12]; MIA-PaCa2 model, day 30): did not show any difference | decrease of the total weight of metastatic nodules of MIA-PaCa2 tumor (MIA-PaCa2 [12]; highest dose (250 mg/kg/day) s.c., day 30, versus control): ~90% | organ toxicity by histological examination ([13]; liver, kidney, brain, heart, lung, day 30): no organ toxicity was detected | dose tolerated without visible, biochemical or histological evidence of toxicity ([13]; mice, s.c.): up to 250 mg/kg/day | serum alanine aminotransferase (ALT) ([13]; mouse, in vivo): no significant differences | serum aldolase ([13]; mouse, in vivo): no significant differences | serum creatine kinase (CK) ([13]; mouse, in vivo): no significant differences | serum creatinine (Cr) ([13]; mouse, in vivo): no significant differences | MMPs activity in primary orthotopic tumors [14]: decreased MMPs activity | MMP-9 mRNA level in primary tumors (MMP-9 [15]): did not affect | MMP-9 protein level in primary tumors (MMP-9 [16]): did not affect | zymography for MMP-9, gelatinase activity in tumors (MMP-9 [17]): dose dependent decrease in gelatinase activity | cysteamine plasma level [18]: ~50 µM | adverse effects in subjects [1]: only gastrointestinal symptoms

CNC(=O)[C@H](Cc1ccccc1)NC(=O)[C@H](CC(C)C)[C@H](CSc1cccs1)C(=O)NO [Batimastat]
IC50 (MMP-12 [19]): 12 nM | oral bioavailability [20]: poor oral bioavailability
